Results: article PMC9481151, “Discovery of new symmetrical and asymmetrical nitrile-containing 1,4-dihydropyridine derivatives as dual kinases and P-glycoprotein inhibitors: synthesis, in vitro assays, and in silico studies” (Journal of Enzyme Inhibition and Medicinal Chemistry, 2022)

Columns and labels:
CCRF-CEM = assay: NCI single dose (10 µM) SRB screen; type: cell-based, human; conditions: leukaemia, 48 h
HL-60(TB) = assay: NCI single dose (10 µM) SRB screen; type: cell-based, human; conditions: leukaemia, 48 h
K-562 = assay: NCI single dose (10 µM) SRB screen; type: cell-based, human; conditions: leukaemia, 48 h
MOLT-4 = assay: NCI single dose (10 µM) SRB screen; type: cell-based, human; conditions: leukaemia, 48 h
RPMI-8226 = assay: NCI single dose (10 µM) SRB screen; type: cell-based, human; conditions: leukaemia, 48 h
SR = assay: NCI single dose (10 µM) SRB screen; type: cell-based, human; conditions: leukaemia, 48 h
A549/ATCC = assay: NCI single dose (10 µM) SRB screen; type: cell-based, human; conditions: non-small cell lung cancer, 48 h
EKVX = assay: NCI single dose (10 µM) SRB screen; type: cell-based, human; conditions: non-small cell lung cancer, 48 h
HOP-62 = assay: NCI single dose (10 µM) SRB screen; type: cell-based, human; conditions: non-small cell lung cancer, 48 h
HOP-92 = assay: NCI single dose (10 µM) SRB screen; type: cell-based, human; conditions: non-small cell lung cancer, 48 h
NCI-H226 = assay: NCI single dose (10 µM) SRB screen; type: cell-based, human; conditions: non-small cell lung cancer, 48 h
NCI-H23 = assay: NCI single dose (10 µM) SRB screen; type: cell-based, human; conditions: non-small cell lung cancer, 48 h
NCI-H322M = assay: NCI single dose (10 µM) SRB screen; type: cell-based; conditions: non-small cell lung cancer, 48 h
NCI-H460 = assay: NCI single dose (10 µM) SRB screen; type: cell-based, human; conditions: non-small cell lung cancer, 48 h
NCI-H522 = assay: NCI single dose (10 µM) SRB screen; type: cell-based, human; conditions: non-small cell lung cancer, 48 h
COLO 205 = assay: NCI single dose (10 µM) SRB screen; type: cell-based, human; conditions: colon cancer, 48 h
HCC-2998 = assay: NCI single dose (10 µM) SRB screen; type: cell-based, human; conditions: colon cancer, 48 h
HCT-116 = assay: NCI single dose (10 µM) SRB screen; type: cell-based, human; conditions: colon cancer, 48 h
HCT-15 = assay: NCI single dose (10 µM) SRB screen; type: cell-based, human; conditions: colon cancer, 48 h
HT29 = assay: NCI single dose (10 µM) SRB screen; type: cell-based, human; conditions: colon cancer, 48 h
KM12 = assay: NCI single dose (10 µM) SRB screen; type: cell-based, human; conditions: colon cancer, 48 h
SW-620 = assay: NCI single dose (10 µM) SRB screen; type: cell-based, human; conditions: colon cancer, 48 h
SF-268 = assay: NCI single dose (10 µM) SRB screen; type: cell-based, human; conditions: CNS cancer, 48 h
SF-295 = assay: NCI single dose (10 µM) SRB screen; type: cell-based, human; conditions: CNS cancer, 48 h
SF-539 = assay: NCI single dose (10 µM) SRB screen; type: cell-based, human; conditions: CNS cancer, 48 h
SNB-19 = assay: NCI single dose (10 µM) SRB screen; type: cell-based, human; conditions: CNS cancer, 48 h
SNB-75 = assay: NCI single dose (10 µM) SRB screen; type: cell-based, human; conditions: CNS cancer, 48 h
U251 = assay: NCI single dose (10 µM) SRB screen; type: cell-based, human; conditions: CNS cancer, 48 h
LOX IMVI = assay: NCI single dose (10 µM) SRB screen; type: cell-based, human; conditions: melanoma, 48 h
MALME-3M = assay: NCI single dose (10 µM) SRB screen; type: cell-based, human; conditions: melanoma, 48 h
M14 = assay: NCI single dose (10 µM) SRB screen; type: cell-based, human; conditions: melanoma, 48 h
MDA-MB-435 = assay: NCI single dose (10 µM) SRB screen; type: cell-based, human; conditions: melanoma, 48 h
SK-MEL-2 = assay: NCI single dose (10 µM) SRB screen; type: cell-based, human; conditions: melanoma, 48 h
SK-MEL-28 = assay: NCI single dose (10 µM) SRB screen; type: cell-based, human; conditions: melanoma, 48 h
SK-MEL-5 = assay: NCI single dose (10 µM) SRB screen; type: cell-based, human; conditions: melanoma, 48 h
UACC-257 = assay: NCI single dose (10 µM) SRB screen; type: cell-based, human; conditions: melanoma, 48 h
UACC-62 = assay: NCI single dose (10 µM) SRB screen; type: cell-based, human; conditions: melanoma, 48 h
IGROV1 = assay: NCI single dose (10 µM) SRB screen; type: cell-based, human; conditions: ovarian cancer, 48 h
OVCAR-3 = assay: NCI single dose (10 µM) SRB screen; type: cell-based, human; conditions: ovarian cancer, 48 h
OVCAR-4 = assay: NCI single dose (10 µM) SRB screen; type: cell-based, human; conditions: ovarian cancer, 48 h
OVCAR-5 = assay: NCI single dose (10 µM) SRB screen; type: cell-based, human; conditions: ovarian cancer, 48 h
OVCAR-8 = assay: NCI single dose (10 µM) SRB screen; type: cell-based, human; conditions: ovarian cancer, 48 h
NCI/ADR-RES = assay: NCI single dose (10 µM) SRB screen; type: cell-based, human; conditions: ovarian cancer, 48 h
SK-OV-3 = assay: NCI single dose (10 µM) SRB screen; type: cell-based, human; conditions: ovarian cancer, 48 h
786-0 = assay: NCI single dose (10 µM) SRB screen; type: cell-based, human; conditions: renal cancer, 48 h
A498 = assay: NCI single dose (10 µM) SRB screen; type: cell-based, human; conditions: renal cancer, 48 h
ACHN = assay: NCI single dose (10 µM) SRB screen; type: cell-based, human; conditions: renal cancer, 48 h
CAKI-1 = assay: NCI single dose (10 µM) SRB screen; type: cell-based, human; conditions: renal cancer, 48 h
RXF 393 = assay: NCI single dose (10 µM) SRB screen; type: cell-based, human; conditions: renal cancer, 48 h
SN12C = assay: NCI single dose (10 µM) SRB screen; type: cell-based, human; conditions: renal cancer, 48 h
TK-10 = assay: NCI single dose (10 µM) SRB screen; type: cell-based, human; conditions: renal cancer, 48 h
UO-31 = assay: NCI single dose (10 µM) SRB screen; type: cell-based, human; conditions: renal cancer, 48 h
PC-3 = assay: NCI single dose (10 µM) SRB screen; type: cell-based, human; conditions: prostate cancer, 48 h
DU-145 = assay: NCI single dose (10 µM) SRB screen; type: cell-based, human; conditions: prostate cancer, 48 h
MCF7 = assay: NCI single dose (10 µM) SRB screen; type: cell-based, human; conditions: breast cancer, 48 h
MDA-MB-231 = assay: NCI single dose (10 µM) SRB screen; type: cell-based, human; conditions: breast cancer, 48 h
HS578T = assay: NCI single dose (10 µM) SRB screen; type: cell-based, human; conditions: breast cancer, 48 h
BT-549 = assay: NCI single dose (10 µM) SRB screen; type: cell-based, human; conditions: breast cancer, 48 h
T-47D = assay: NCI single dose (10 µM) SRB screen; type: cell-based, human; conditions: breast cancer, 48 h
MDA-MB-468 = assay: NCI single dose (10 µM) SRB screen; type: cell-based, human; conditions: breast cancer, 48 h
NCI 60 cancer cell lines = assay: NCI single dose (10 µM) SRB screen, mean over panel; type: cell-based, human; conditions: mean over 60 cell lines, 48 h
Staphylococcus aureus = assay: Agar well diffusion method
Bacillus subtilis = assay: Agar well diffusion method; conditions: relative to ciprofloxacin
Escherichia coli = assay: Agar well diffusion method; conditions: relative to ciprofloxacin
Pseudomonas aeruginosa = assay: Agar well diffusion method; conditions: relative to ciprofloxacin
Candida albicans = assay: Agar well diffusion method; conditions: relative to clotrimazole
Aspergillus flavus = assay: Agar well diffusion method

Substance: Diethyl 4-(3-cyanophenyl)-2,6-dipropyl-1,4-dihydropyridine-3,5-dicarboxylate [Compound 1h]
- GI% CCRF-CEM (CCRF-CEM): 24%
- GI% HL-60(TB) (HL-60(TB)): – (Only GI% ≥ 10 are shown)
- GI% K-562 (K-562): 31%
- GI% MOLT-4 (MOLT-4): 38%
- GI% RPMI-8226 (RPMI-8226): 34%
- GI% SR (SR): 32%
- GI% A549/ATCC (A549/ATCC): 21%
- GI% EKVX (EKVX): 21%
- GI% HOP-62 (HOP-62): – (Only GI% ≥ 10 are shown)
- GI% HOP-92 (HOP-92): 29%
- GI% NCI-H226 (NCI-H226): 26%
- GI% NCI-H23 (NCI-H23): – (Only GI% ≥ 10 are shown)
- GI% NCI-H322M (NCI-H322M): – (Only GI% ≥ 10 are shown)
- GI% NCI-H460 (NCI-H460): – (Only GI% ≥ 10 are shown)
- GI% NCI-H522 (NCI-H522): 20%
- GI% COLO 205 (COLO 205): – (Only GI% ≥ 10 are shown)
- GI% HCC-2998 (HCC-2998): – (Only GI% ≥ 10 are shown)
- GI% HCT-116 (HCT-116): 30%
- GI% HCT-15 (HCT-15): 17%
- GI% HT29 (HT29): 12%
- GI% KM12 (KM12): – (Only GI% ≥ 10 are shown)
- GI% SW-620 (SW-620): – (Only GI% ≥ 10 are shown)
- GI% SF-268 (SF-268): 22%
- GI% SF-295 (SF-295): 11%
- GI% SF-539 (SF-539): 14%
- GI% SNB-19 (SNB-19): – (Only GI% ≥ 10 are shown)
- GI% SNB-75 (SNB-75): 42%
- GI% U251 (U251): – (Only GI% ≥ 10 are shown)
- GI% LOX IMVI (LOX IMVI): – (Only GI% ≥ 10 are shown)
- GI% MALME-3M (MALME-3M): – (Only GI% ≥ 10 are shown)
- GI% M14 (M14): – (Only GI% ≥ 10 are shown)
- GI% MDA-MB-435 (MDA-MB-435): – (Only GI% ≥ 10 are shown)
- GI% SK-MEL-2 (SK-MEL-2): – (Only GI% ≥ 10 are shown)
- GI% SK-MEL-28 (SK-MEL-28): – (Only GI% ≥ 10 are shown)
- GI% SK-MEL-5 (SK-MEL-5): 31%
- GI% UACC-257 (UACC-257): – (Only GI% ≥ 10 are shown)
- GI% UACC-62 (UACC-62): 19%
- GI% IGROV1 (IGROV1): 10%
- GI% OVCAR-3 (OVCAR-3): – (Only GI% ≥ 10 are shown)
- GI% OVCAR-4 (OVCAR-4): 32%
- GI% OVCAR-5 (OVCAR-5): – (Only GI% ≥ 10 are shown)
- GI% OVCAR-8 (OVCAR-8): – (Only GI% ≥ 10 are shown)
- GI% NCI/ADR-RES (NCI/ADR-RES): 18%
- GI% SK-OV-3 (SK-OV-3): – (Only GI% ≥ 10 are shown)
- GI% 786-0 (786-0): 16%
- GI% A498 (A498): 18%
- GI% ACHN (ACHN): – (Only GI% ≥ 10 are shown)
- GI% CAKI-1 (CAKI-1): 30%
- GI% RXF 393 (RXF 393): 18%
- GI% SN12C (SN12C): – (Only GI% ≥ 10 are shown)
- GI% TK-10 (TK-10): – (Only GI% ≥ 10 are shown)
- GI% UO-31 (UO-31): 19%
- GI% PC-3 (PC-3): 47%
- GI% DU-145 (DU-145): – (Only GI% ≥ 10 are shown)
- GI% MCF7 (MCF7): 25%
- GI% MDA-MB-231 (MDA-MB-231): – (Only GI% ≥ 10 are shown)
- GI% HS578T (HS578T): 18%
- GI% BT-549 (BT-549): 14%
- GI% T-47D (T-47D): 32%
- GI% MDA-MB-468 (MDA-MB-468): 20%
- Mean GI% (NCI 60 cancer cell lines): 14%
- Diameter of inhibition zone, S. aureus (Staphylococcus aureus; 1 mg/mL in DMSO, 24 h, 36 °C): 7 mm
- % activity index, S. aureus (Staphylococcus aureus; relative to ciprofloxacin): 29.2%
- % activity index, B. subtilis (Bacillus subtilis): – (Values below 25 are of limited value and not shown as they refer either to inactive or non-diffusing compounds)
- % activity index, E. coli (Escherichia coli): – (Values below 25 are of limited value and not shown as they refer either to inactive or non-diffusing compounds)
- % activity index, P. aeruginosa (Pseudomonas aeruginosa): – (Values below 25 are of limited value and not shown as they refer either to inactive or non-diffusing compounds)
- % activity index, C. albicans (Candida albicans): – (Values below 25 are of limited value and not shown as they refer either to inactive or non-diffusing compounds)
- Diameter of inhibition zone, A. flavus (Aspergillus flavus; 1 mg/mL in DMSO, 24 h, 36 °C): 8 mm
- % activity index, A. flavus (Aspergillus flavus; relative to clotrimazole): 32%
